Experiment: Release of docetaxel from the polymer matrix of the device
Assay type: physicochemical
Settings: Docetaxel incorporated in the polymer matrix in the form of powder
Description: The selected active ingredient may be appropriately incorporated into the polymer matrix in a form suitable for obtaining a prolonged release of the main active ingredient itself, without affecting the pharmacological activity thereof. For example, the Docetaxel incorporated in the polymer matrix in the form of powder is released up to 60 days after implantation. Longer release times may be easily achieved by incorporating the active ingredient, instead of in the form of powder, in its co-crystalline form. This solid form reduces the rate of dissolution, which is a necessary prerequisite for subsequent diffusion into the space surrounding the implanted device, […].
To study the release profile, the μMESH device and the FLAT counterpart thereof were incubated in 1 ml of phosphate buffered saline (PBS), to mimic and maximize the volume of liquid to which the devices may be exposed in a local application. At different times, the solution was centrifuged at 5000 rpm for 10 min and the supernatant was analyzed using the protocol described above. The results are expressed as a percentage of the cumulative release over time of three samples for each type of device.

- release time of active ingredient after implantation: up to 60 days
Structure (SMILES): CC(=O)O[C@@]12CO[C@@H]1C[C@H](O)[C@@]1(C)C(=O)[C@H](O)C3=C(C)[C@@H](OC(=O)[C@H](O)[C@@H](NC(=O)OC(C)(C)C)c4ccccc4)C[C@@](O)([C@@H](OC(=O)c4ccccc4)[C@H]21)C3(C)C [Docetaxel]

Source: patent publication US20210161807A1, “IMPLANTABLE DEVICE FOR LOCALIZED DRUG DELIVERY, USES AND MANUFACTURING METHOD THEREOF” (FONDAZIONE ISTITUTO ITALIANO DI TECNOLOGIA, priority 2018, published 2021)
